Assay results published in publication PMC5429621 (Scientific Reports, 2017).
Substitutions are numbered along the chain they refer to.

Legend:
Test in all cases: two-electrode voltage clamp, Xenopus oocytes
Type in all cases: cell-based
[1] = molecular target: T1, hP2X7-2Nβ/P2X1 chimera 279–285 (Homo sapiens, UniProt Q99572, DEL279-281/I21V/M24R/N16P/N25R/N284E/Q22R/R20V/S23N/T19I/T282Y/T283E/V285K/Y26L); conditions: 279–285 chimera; relative to P2X7-2Nβ
T1 construct: expressed in transfected cells; host or cells: Xenopus laevis oocytes (cRNA injected)
T1 sequence (Q99572 with tags, fused parts or gaps N16P/T19I/R20V/I21V/Q22R/S23N/M24R/N25R/Y26L/DEL279-281/T282Y/T283E/N284E/V285K): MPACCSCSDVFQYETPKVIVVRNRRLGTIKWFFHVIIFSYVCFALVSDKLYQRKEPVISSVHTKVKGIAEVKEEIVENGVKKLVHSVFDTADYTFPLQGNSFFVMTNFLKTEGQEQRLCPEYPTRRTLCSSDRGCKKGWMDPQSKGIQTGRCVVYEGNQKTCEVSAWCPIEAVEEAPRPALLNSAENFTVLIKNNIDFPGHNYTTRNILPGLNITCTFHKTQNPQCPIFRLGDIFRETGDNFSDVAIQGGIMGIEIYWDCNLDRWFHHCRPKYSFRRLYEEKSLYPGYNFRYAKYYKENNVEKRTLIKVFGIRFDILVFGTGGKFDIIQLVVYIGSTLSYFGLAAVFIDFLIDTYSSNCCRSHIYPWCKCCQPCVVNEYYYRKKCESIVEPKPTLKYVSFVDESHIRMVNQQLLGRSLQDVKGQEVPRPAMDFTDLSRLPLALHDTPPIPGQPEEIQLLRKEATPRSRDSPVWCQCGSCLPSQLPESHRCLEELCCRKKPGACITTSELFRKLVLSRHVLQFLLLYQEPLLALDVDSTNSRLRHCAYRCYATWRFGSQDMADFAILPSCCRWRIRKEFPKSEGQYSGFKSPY
Text: (§1) The hP2X1R was a gift from Dr Lin-Hua Jiang (University of Leeds, UK) and the hP2X1R cDNA has been described previously. Chimeras were generated by megaprimer-mediated domain swapping. In addition to chimeras, point mutations, deletions and insertions were made using the QuikChange (Stratagene) or Q5 (New England Bioscience) mutagenesis kits. The production of the correct mutations and absence of coding errors was verified by DNA sequencing (Automated ABI Sequencing Service, University of Leicester, UK).
(§2) P2XR constructs were transcribed to produce sense-strand cRNA (mMessage mMachine, Ambion, Austin, TX). Manually defoliculated stage V Xenopus laevis oocytes were injected with 50 nl (50 ng) of cRNA using an Inject + Matic microinjector (J.A. Gaby, InjectMatic, Geneva, Switzerland) and stored at 16 °C in ND96 buffer (in mM, NaCl 96, KCl 2, CaCl2 1.8, MgCl2 1, sodium pyruvate 5, HEPES 5 (pH 7.6) supplemented with 50 µg/ml gentamycin and 50 µg/ml tetracycline). For electrophysiological recordings (3–7 days post-injection) oocytes were bathed in divalent free ND96 buffer (in mM, NaCl 96, KCl 2, sodium pyruvate 5, HEPES 5 and 0.1 flufenamic acid, pH 7.6).
(§3) ATP (sodium salt, Sigma) was applied via a U-tube perfusion system for 3 s at 3–5 minute intervals to allow reproducible responses to be recorded. […] To standardize for any change in ATP sensitivity at mutant receptors antagonists were co-applied with an EC90 concentration of ATP.
(§4) Concentration response curves were normalized to the maximal response and fitted with the Hill equation (variable slope) with GraphPad Prism 6 (Graphpad software, San Diego, CA). […] Individual concentration response curves were generated for individual experiments and statistical analysis was carried out on the data generated. In the figures the inhibition curves are fitted to the mean normalized data. Any significant differences were calculated by one-way analysis of variance, followed by Bonferroni’s test (using GraphPad Prism 6). Data are shown as mean ± SEM.

hP2X7-2Nβ K297G = molecular target: T2, hP2X7-2Nβ K297G (Homo sapiens, UniProt Q99572, I21V/K297G/M24R/N16P/N25R/Q22R/R20V/S23N/T19I/Y26L); conditions: relative to P2X7-2Nβ
T2 construct: expressed in transfected cells; host or cells: Xenopus laevis oocytes (cRNA injection)
T2 sequence (Q99572 1-595 N16P/T19I/R20V/I21V/Q22R/S23N/M24R/N25R/Y26L/K297G): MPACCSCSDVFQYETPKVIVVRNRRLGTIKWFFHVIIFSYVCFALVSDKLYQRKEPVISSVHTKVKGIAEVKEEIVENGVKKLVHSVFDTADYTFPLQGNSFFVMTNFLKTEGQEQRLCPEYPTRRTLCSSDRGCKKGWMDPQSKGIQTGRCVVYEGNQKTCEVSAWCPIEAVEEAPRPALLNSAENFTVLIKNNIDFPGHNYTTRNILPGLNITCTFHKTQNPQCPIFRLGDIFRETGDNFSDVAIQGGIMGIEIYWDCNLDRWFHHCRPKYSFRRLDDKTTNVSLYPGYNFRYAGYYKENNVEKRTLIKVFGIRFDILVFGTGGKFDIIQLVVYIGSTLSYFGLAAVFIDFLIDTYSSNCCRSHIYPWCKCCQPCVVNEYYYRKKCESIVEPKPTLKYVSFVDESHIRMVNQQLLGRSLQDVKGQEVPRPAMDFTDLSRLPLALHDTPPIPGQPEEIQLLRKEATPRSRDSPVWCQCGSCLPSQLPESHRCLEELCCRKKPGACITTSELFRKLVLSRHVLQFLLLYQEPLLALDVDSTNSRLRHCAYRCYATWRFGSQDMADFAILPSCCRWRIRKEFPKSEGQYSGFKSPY
Text: as §1, §2, §3, §4

hP2X7-2Nβ K110Y = molecular target: T3, hP2X7-2Nβ K110Y (Homo sapiens, UniProt Q99572, I21V/K110Y/M24R/N16P/N25R/Q22R/R20V/S23N/T19I/Y26L); conditions: relative to P2X7-2Nβ
T3 construct: expressed in transfected cells; host or cells: Xenopus laevis oocytes (cRNA injection)
T3 sequence (Q99572 1-595 N16P/T19I/R20V/I21V/Q22R/S23N/M24R/N25R/Y26L/K110Y): T2 sequence (Q99572 1-595 N16P/T19I/R20V/I21V/Q22R/S23N/M24R/N25R/Y26L/K297G) with K110Y, G297K
Text: as §1, §2, §3, §4

Structure (SMILES) | increase in ATP sensitivity [1] | increase in AZ10606120 sensitivity (hP2X7-2Nβ K297G) [fold] | increase in sensitivity to AZ10606120 (hP2X7-2Nβ K110Y)
Nc1ncnc2c1ncn2[C@@H]1O[C@H](COP(=O)(O)OP(=O)(O)OP(=O)(O)O)[C@@H](O)[C@H]1O [ATP] | ~ 10 fold | – | –
Cl.Cl.O=C(CC12CC3CC(CC(C3)C1)C2)Nc1cccc2nc(NCCNCCO)ccc12 [AZ10606120, N-[2-[[2-[(2-Hydroxyethyl)amino]ethyl]amino]-5-quinolinyl]-2-tricyclo[3.3.1.13,7]dec-1-ylacetamide dihydrochloride] | – | > 100 | ~ 100 fold
